According to the supplement of paper PMC10307832:

How the values were obtained:
Assay in all cases: relative viability (nuclei count vs DMSO), 5 days (fraction); higher = more cells survive
Everolimus = compound: CO[C@H]1C[C@@H]2CC[C@@H](C)[C@@](O)(O2)C(=O)C(=O)N2CCCC[C@H]2C(=O)O[C@H]([C@H](C)C[C@@H]2CC[C@@H](OCCO)[C@H](OC)C2)CC(=O)[C@H](C)/C=C(\C)[C@@H](O)[C@@H](OC)C(=O)[C@H](C)C[C@H](C)/C=C/C=C/C=C/1C [Everolimus]
Summary of the method: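 Five library-drug doses, separated by factors of √10, were pinned into 1536-well plates holding lung cancer cell lines after an overnight stay at 37 °C. Cells were fixed, permeabilised and Hoechst-stained in one step after 5 days without medium change, then imaged at 4×. Viability compares treated-well with vehicle-well nuclei, counted in MetaXpress, as a median across plates. Passing plates had control CV below 25% and at least one doubling.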

Everolimus + OSI-027 = compound: CO[C@H]1C[C@@H]2CC[C@@H](C)[C@@](O)(O2)C(=O)C(=O)N2CCCC[C@H]2C(=O)O[C@H]([C@H](C)C[C@@H]2CC[C@@H](OCCO)[C@H](OC)C2)CC(=O)[C@H](C)/C=C(\C)[C@@H](O)[C@@H](OC)C(=O)[C@H](C)C[C@H](C)/C=C/C=C/C=C/1C [Everolimus] + COc1cccc2cc(-c3nc([C@H]4CC[C@H](C(=O)O)CC4)n4ncnc(N)c34)[nH]c12 [OSI-027] (partner 0.5 µM)
Summary of the method: (§1)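 Lung cancer cell lines in 1536-well plates were dosed by pin tool the day after seeding, either with one drug alone or with a fixed anchor-drug dose plus five library-drug doses (not always all listed) in √10 steps. After 5 days, cells were fixed and their nuclei stained in one step (final 0.05% Triton X-100, 1% formaldehyde, 1 ug/ml Hoechst), then counted on 4× images. Relative viability is the nuclei count in treated wells divided by that in vehicle wells. Values are medians of duplicate plates.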

Everolimus + Phenformin = compound: CO[C@H]1C[C@@H]2CC[C@@H](C)[C@@](O)(O2)C(=O)C(=O)N2CCCC[C@H]2C(=O)O[C@H]([C@H](C)C[C@@H]2CC[C@@H](OCCO)[C@H](OC)C2)CC(=O)[C@H](C)/C=C(\C)[C@@H](O)[C@@H](OC)C(=O)[C@H](C)C[C@H](C)/C=C/C=C/C=C/1C [Everolimus] + N=C(N)NC(=N)NCCc1ccccc1 [Phenformin] (partner 250 µM)
Summary of the method: as §1

Everolimus + Trametinib = compound: CO[C@H]1C[C@@H]2CC[C@@H](C)[C@@](O)(O2)C(=O)C(=O)N2CCCC[C@H]2C(=O)O[C@H]([C@H](C)C[C@@H]2CC[C@@H](OCCO)[C@H](OC)C2)CC(=O)[C@H](C)/C=C(\C)[C@@H](O)[C@@H](OC)C(=O)[C@H](C)C[C@H](C)/C=C/C=C/C=C/1C [Everolimus] + CC(=O)Nc1cccc(-n2c(=O)n(C3CC3)c(=O)c3c(Nc4ccc(I)cc4F)n(C)c(=O)c(C)c32)c1 [Trametinib] (partner 0.02 µM)
Summary of the method: as §1

Row | Cell Line | relative viability (Everolimus; 0.01 µM) | relative viability (Everolimus; 0.03162 µM) | relative viability (Everolimus; 0.1 µM) | relative viability (Everolimus; 0.3162 µM) | relative viability (Everolimus; 1 µM) | relative viability (Everolimus + OSI-027; first compound 0.01 µM) | relative viability (Everolimus + OSI-027; first compound 0.03162 µM) | relative viability (Everolimus + OSI-027; first compound 0.1 µM) | relative viability (Everolimus + OSI-027; first compound 0.3162 µM) | relative viability (Everolimus + OSI-027; first compound 1 µM) | relative viability (Everolimus + Phenformin; first compound 0.01 µM) | relative viability (Everolimus + Phenformin; first compound 0.03162 µM) | relative viability (Everolimus + Phenformin; first compound 0.1 µM) | relative viability (Everolimus + Phenformin; first compound 0.3162 µM) | relative viability (Everolimus + Phenformin; first compound 1 µM) | relative viability (Everolimus + Trametinib; first compound 0.01 µM) | relative viability (Everolimus + Trametinib; first compound 0.03162 µM) | relative viability (Everolimus + Trametinib; first compound 0.1 µM) | relative viability (Everolimus + Trametinib; first compound 0.3162 µM) | relative viability (Everolimus + Trametinib; first compound 1 µM)
1 | HCC-15 | 0.964 | 0.994 | 0.922 | 0.98 | 0.958 | 0.502 | 0.517 | 0.447 | 0.543 | 0.546 | 0.465 | 0.474 | 0.459 | 0.497 | 0.471 | 0.35 | 0.344 | 0.334 | 0.282 | 0.32
2 | HCC-44 | 1 | 0.974 | 0.985 | 0.969 | 0.957 | 0.382 | 0.438 | 0.434 | 0.384 | 0.548 | 0.195 | 0.125 | 0.127 | 0.178 | 0.168 | 1.13 | 1.08 | 0.982 | 1.04 | 0.901
3 | HCC-78 | 0.905 | 0.919 | 0.659 | 0.858 | 0.644 | 0.348 | 0.332 | 0.572 | 0.311 | 0.347 | 0.504 | 0.462 | 0.451 | 0.564 | 0.626 | 0.637 | 0.56 | 0.493 | 0.529 | 0.47
4 | HCC-366 | 0.955 | 0.961 | 0.935 | 0.929 | 0.972 | 0.755 | 0.614 | 0.49 | 0.727 | 0.5 | 0.59 | 0.613 | 0.601 | 0.528 | 0.582 | 0.258 | 0.245 | 0.257 | 0.227 | 0.225
5 | HCC-827 | 1.1 | 1.09 | 1.01 | 1.03 | 1.05 | 0.624 | 0.613 | 0.596 | 0.482 | 0.47 | 0.434 | 0.404 | 0.416 | 0.396 | 0.403 | 0.494 | 0.314 | 0.311 | 0.31 | 0.295
6 | HOP-62 | 0.901 | 0.856 | 0.767 | 0.777 | 0.794 | 0.548 | 0.511 | 0.448 | 0.517 | 0.503 | 0.583 | 0.579 | 0.495 | 0.513 | 0.535 | 0.263 | 0.211 | 0.248 | 0.2 | 0.195
7 | IA-LM | 0.601 | 0.396 | 0.378 | 0.374 | 0.406 | – | – | – | – | – | – | – | – | – | – | – | – | – | – | –
